In article PMC5218480 (PLoS ONE, 2017):

System: MV-4-11 cells
Experiment: Gene expression microarray analysis (Affymetrix PrimeView) and GSEA
Assay type: cell-based, human
Parameters: RFU PODN (11730768_x_at) / Fold change /veh PODN (11730768_x_at) / RFU LINC00158 (11744669_a_at) / Fold change /veh LINC00158 (11744669_a_at) / RFU DUSP10 (11751237_a_at) / Fold change /veh DUSP10 (11751237_a_at) / RFU ID3 (11757404_x_at) / Fold change /veh ID3 (11757404_x_at) / RFU PLEKHG5 (11737974_s_at) / Fold change /veh PLEKHG5 (11737974_s_at) / RFU LRRC4B (11730491_at) / Fold change /veh LRRC4B (11730491_at) / RFU GIMAP4 (11747438_a_at) / Fold change /veh GIMAP4 (11747438_a_at) / RFU KRT8 (11758183_x_at) / Fold change /veh KRT8 (11758183_x_at) / RFU CNN1 (11734310_a_at) / Fold change /veh CNN1 (11734310_a_at) / RFU VPS37D (11726825_at) / Fold change /veh VPS37D (11726825_at) / RFU C10orf10 (11716522_x_at) / Fold change /veh C10orf10 (11716522_x_at) / RFU KIR2DL2 /// KIR2DL4 /// KIR2DL5A /// KIR2DL5B /// KIR2DS1 /// KIR2DS2 /// KIR2DS3 /// KIR2DS4 /// KIR3DL3 /// KIR3DL3 /// KIR3DS1 (11738374_at) / Fold change /veh KIR2DL2 /// KIR2DL4 /// KIR2DL5A /// KIR2DL5B /// KIR2DS1 /// KIR2DS2 /// KIR2DS3 /// KIR2DS4 /// KIR3DL3 /// KIR3DL3 /// KIR3DS1 (11738374_at) / RFU C1QL1 (11718748_at) / Fold change /veh C1QL1 (11718748_at) / RFU TMPRSS4 (11747572_a_at) / Fold change /veh TMPRSS4 (11747572_a_at) / RFU HAMP (11756126_x_at) / Fold change /veh HAMP (11756126_x_at) / RFU RNFT2 (11725882_a_at) / Fold change /veh RNFT2 (11725882_a_at) / RFU NR4A2 (11747474_a_at) / Fold change /veh NR4A2 (11747474_a_at) / RFU ABCC12 (11746883_a_at) / Fold change /veh ABCC12 (11746883_a_at) / RFU TMEM136 (11760407_x_at) / Fold change /veh TMEM136 (11760407_x_at) / RFU CLDN22 /// WWC2 (11732394_at) / Fold change /veh CLDN22 /// WWC2 (11732394_at) / RFU HLA-DPB1 (11760878_x_at) / Fold change /veh HLA-DPB1 (11760878_x_at) / RFU SPINT1 (11716480_a_at) / Fold change /veh SPINT1 (11716480_a_at) / RFU GAP43 (11754022_s_at) / Fold change /veh GAP43 (11754022_s_at) / RFU A4GNT (11735810_at) / Fold change /veh A4GNT (11735810_at) / RFU PRB3 (11715151_x_at) / Fold change /veh PRB3 (11715151_x_at) / RFU TUBB4B (11761932_at) / Fold change /veh TUBB4B (11761932_at) / RFU CAPN14 (11732068_a_at) / Fold change /veh CAPN14 (11732068_a_at) / RFU TMCC2 (11721928_a_at) / Fold change /veh TMCC2 (11721928_a_at) / RFU IRGQ (11745062_a_at) / Fold change /veh IRGQ (11745062_a_at) / RFU FAM174B (11720279_a_at) / Fold change /veh FAM174B (11720279_a_at) / RFU TMPRSS4 (11748680_a_at) / Fold change /veh TMPRSS4 (11748680_a_at) / RFU FAM212B (11763350_a_at) / Fold change /veh FAM212B (11763350_a_at) / RFU PLEKHG5 (11743358_a_at) / Fold change /veh PLEKHG5 (11743358_a_at) / RFU ZSCAN30 (11745921_a_at) / Fold change /veh ZSCAN30 (11745921_a_at) / RFU CMKLR1 (11741424_a_at) / Fold change /veh CMKLR1 (11741424_a_at) / RFU LOC101060620 /// MAPK8IP1 (11723275_at) / Fold change /veh LOC101060620 /// MAPK8IP1 (11723275_at) / RFU SPTSSB (11747773_x_at) / Fold change /veh SPTSSB (11747773_x_at) / RFU PRSS12 (11739890_at) / Fold change /veh PRSS12 (11739890_at) / RFU BIN1 (11741810_x_at) / Fold change /veh BIN1 (11741810_x_at) / RFU WNT11 (11732464_a_at) / Fold change /veh WNT11 (11732464_a_at) / RFU C10orf10 (11716521_a_at) / Fold change /veh C10orf10 (11716521_a_at) / RFU C5orf56 (11738089_at) / Fold change /veh C5orf56 (11738089_at) / RFU CYB561 (11721691_x_at) / Fold change /veh CYB561 (11721691_x_at) / RFU ANKRD19P (11752326_a_at) / Fold change /veh ANKRD19P (11752326_a_at) / RFU OR2T12 /// OR2T33 /// OR2T8 (11738714_s_at) / Fold change /veh OR2T12 /// OR2T33 /// OR2T8 (11738714_s_at) / RFU VCAN (11748164_a_at) / Fold change /veh VCAN (11748164_a_at) / RFU JSRP1 (11732532_at) / Fold change /veh JSRP1 (11732532_at) / RFU KRTAP10-11 (11738290_x_at) / Fold change /veh KRTAP10-11 (11738290_x_at) / RFU MYO3A (11730013_a_at) / Fold change /veh MYO3A (11730013_a_at) / RFU EBF3 (11725865_a_at) / Fold change /veh EBF3 (11725865_a_at) / RFU CAMK2N1 (11719241_x_at) / Fold change /veh CAMK2N1 (11719241_x_at) / RFU C5orf56 (11738088_a_at) / Fold change /veh C5orf56 (11738088_a_at) / RFU OLFML3 (11715873_a_at) / Fold change /veh OLFML3 (11715873_a_at) / RFU LOC100653217 /// NTM (11731650_a_at) / Fold change /veh LOC100653217 /// NTM (11731650_a_at) / RFU MAPK11 (11762145_a_at) / Fold change /veh MAPK11 (11762145_a_at) / RFU FIZ1 (11724087_x_at) / Fold change /veh FIZ1 (11724087_x_at) / RFU OASL (11726364_x_at) / Fold change /veh OASL (11726364_x_at) / RFU SOX15 (11748057_x_at) / Fold change /veh SOX15 (11748057_x_at) / RFU CD79A (11719716_a_at) / Fold change /veh CD79A (11719716_a_at) / RFU HIST1H1D (11736915_at) / Fold change /veh HIST1H1D (11736915_at) / RFU CASKIN2 (11723855_a_at) / Fold change /veh CASKIN2 (11723855_a_at) / RFU LOC730098 (11760151_x_at) / Fold change /veh LOC730098 (11760151_x_at) / RFU OR4N2 (11742367_at) / Fold change /veh OR4N2 (11742367_at) / RFU PRRT2 (11749266_a_at) / Fold change /veh PRRT2 (11749266_a_at) / RFU SNX32 (11753110_a_at) / Fold change /veh SNX32 (11753110_a_at) / RFU CDHR5 (11726645_a_at) / Fold change /veh CDHR5 (11726645_a_at) / RFU RCAN1 (11760418_a_at) / Fold change /veh RCAN1 (11760418_a_at) / RFU FAM167A (11723789_a_at) / Fold change /veh FAM167A (11723789_a_at) / RFU FAM26E (11764081_at) / Fold change /veh FAM26E (11764081_at) / RFU ISYNA1 (11749810_s_at) / Fold change /veh ISYNA1 (11749810_s_at) / RFU ACY1 (11761880_at) / Fold change /veh ACY1 (11761880_at) / RFU 11764098_at / Fold change /veh 11764098_at / RFU SAMD14 (11745864_x_at) / Fold change /veh SAMD14 (11745864_x_at) / RFU NPB (11741838_a_at) / Fold change /veh NPB (11741838_a_at) / RFU TMPRSS6 (11731388_a_at) / Fold change /veh TMPRSS6 (11731388_a_at) / RFU KRTAP10-2 (11738614_at) / Fold change /veh KRTAP10-2 (11738614_at) / RFU ARHGAP8 /// PRR5-ARHGAP8 (11727945_x_at) / Fold change /veh ARHGAP8 /// PRR5-ARHGAP8 (11727945_x_at) / RFU KRTAP5-7 /// NADSYN1 (11734609_at) / Fold change /veh KRTAP5-7 /// NADSYN1 (11734609_at) / RFU RASL12 (11751679_a_at) / Fold change /veh RASL12 (11751679_a_at) / RFU CDKN2B (11736163_a_at) / Fold change /veh CDKN2B (11736163_a_at) / RFU PRF1 (11729649_at) / Fold change /veh PRF1 (11729649_at) / RFU, ZNF638 /// ZNF638-IT1 / Fold change vs veh, ZNF638 /// ZNF638-IT1 / RFU, PANK3 / Fold change vs veh, PANK3 / RFU, SH3YL1 / Fold change vs veh, SH3YL1 / RFU, ZEB2 / Fold change vs veh, ZEB2 / RFU, NRIP1 / Fold change vs veh, NRIP1 / RFU, PTTG1IP / Fold change vs veh, PTTG1IP / RFU, CAPN2 / Fold change vs veh, CAPN2 / RFU, MED14 / Fold change vs veh, MED14 / RFU, SNORA58 / Fold change vs veh, SNORA58 / RFU, C1orf63 / Fold change vs veh, C1orf63 / RFU, LRRFIP1 / Fold change vs veh, LRRFIP1 / RFU, NDUFAF7 / Fold change vs veh, NDUFAF7 / RFU, SLC12A2 / Fold change vs veh, SLC12A2 / RFU, IBTK / Fold change vs veh, IBTK / RFU, ESF1 / Fold change vs veh, ESF1 / Fold change vs veh, TMEM50B / RFU, TAOK1 / Fold change vs veh, TAOK1 / RFU, ACBD3 / Fold change vs veh, ACBD3 / RFU, TMA16 / Fold change vs veh, TMA16 / RFU, RWDD3 / Fold change vs veh, RWDD3 / RFU, BCAT1 / Fold change vs veh, BCAT1 / RFU, EDEM3 / Fold change vs veh, EDEM3 / RFU, TMEM33 / Fold change vs veh, TMEM33 / RFU, WDR75 / Fold change vs veh, WDR75 / RFU, AHCTF1 / Fold change vs veh, AHCTF1 / RFU, TFRC / Fold change vs veh, TFRC / RFU, ZDHHC17 / Fold change vs veh, ZDHHC17 / RFU, NOM1 / Fold change vs veh, NOM1 / RFU, ARL8B / Fold change vs veh, ARL8B / RFU, ZBTB11 / Fold change vs veh, ZBTB11 / RFU, TAMM41 / Fold change vs veh, TAMM41 / RFU, KIAA1704 /// LOC100996395 / Fold change vs veh, KIAA1704 /// LOC100996395 / RFU, ING1 / Fold change vs veh, ING1 / RFU, TRMT61B / Fold change vs veh, TRMT61B / RFU, FUBP3 / Fold change vs veh, FUBP3 / RFU, TP53 / Fold change vs veh, TP53 / RFU, TNKS2 / Fold change vs veh, TNKS2 / RFU, ZFP14 / Fold change vs veh, ZFP14 / RFU, ACTR2 / Fold change vs veh, ACTR2 / RFU, PPP3R1 / Fold change vs veh, PPP3R1 / RFU, PIK3R1 / Fold change vs veh, PIK3R1 / RFU, HNRNPA1 / Fold change vs veh, HNRNPA1 / RFU, RNF170 / Fold change vs veh, RNF170 / RFU, ZNF28 / Fold change vs veh, ZNF28 / RFU, RNGTT / Fold change vs veh, RNGTT / RFU, OGT / Fold change vs veh, OGT / RFU, BRD1 / Fold change vs veh, BRD1 / RFU, MARS / Fold change vs veh, MARS / RFU, ZNF655 / Fold change vs veh, ZNF655 / RFU, FAHD1 / Fold change vs veh, FAHD1 / RFU, BDP1 / Fold change vs veh, BDP1 / RFU, LRRCC1 / Fold change vs veh, LRRCC1 / RFU, ARID1A / Fold change vs veh, ARID1A / RFU, ZNF146 / Fold change vs veh, ZNF146 / RFU, ZNF330 / Fold change vs veh, ZNF330 / RFU, GPN3 / Fold change vs veh, GPN3 / RFU, C9orf123 / Fold change vs veh, C9orf123 / RFU, N4BP2L2 / Fold change vs veh, N4BP2L2 / RFU, ARFIP1 / Fold change vs veh, ARFIP1 / RFU, FAM179B / Fold change vs veh, FAM179B / RFU, BCL10 / Fold change vs veh, BCL10 / RFU, UHRF1BP1L / Fold change vs veh, UHRF1BP1L / RFU, BET1 / Fold change vs veh, BET1 / RFU, CNOT2 / Fold change vs veh, CNOT2 / RFU, ZNF268 / Fold change vs veh, ZNF268 / Fold change vs veh, ZNF507 / RFU, DGCR2 / Fold change vs veh, DGCR2 / RFU, WDSUB1 / Fold change vs veh, WDSUB1 / Fold change vs veh, HSP90B1 /// MIR3652 / RFU, ADSS / Fold change vs veh, ADSS / RFU, GK / Fold change vs veh, GK / RFU, ZNF148 / Fold change vs veh, ZNF148 / RFU, TAF9 / Fold change vs veh, TAF9 / RFU, SLC1A5 / Fold change vs veh, SLC1A5 / RFU, SLMO2 / Fold change vs veh, SLMO2 / RFU, ABCC4 / Fold change vs veh, ABCC4 / RFU, LOC101060439 /// RAP1B / Fold change vs veh, LOC101060439 /// RAP1B / RFU, RFX7 / Fold change vs veh, RFX7 / RFU, GTPBP10 / Fold change vs veh, GTPBP10 / RFU, CNEP1R1 / Fold change vs veh, CNEP1R1 / RFU, BIVM-ERCC5 /// ERCC5 / Fold change vs veh, BIVM-ERCC5 /// ERCC5 / RFU, ILF3 / Fold change vs veh, ILF3 / RFU 11762660_at / Fold change /veh 11762660_at / RFU VCAN (11757783_s_at) / Fold change /veh VCAN (11757783_s_at) / RFU DDX43 (11728927_at) / Fold change /veh DDX43 (11728927_at) / RFU KRT8 (11758188_x_at) / Fold change /veh KRT8 (11758188_x_at) / RFU NKD1 (11759106_at) / Fold change /veh NKD1 (11759106_at) / RFU SRD5A1 (11742802_a_at) / Fold change /veh SRD5A1 (11742802_a_at) / RFU TPSAB1 /// TPSB2 (11721975_s_at) / Fold change /veh TPSAB1 /// TPSB2 (11721975_s_at) / RFU GSTM3 (11746129_a_at) / Fold change /veh GSTM3 (11746129_a_at) / RFU IL23R (11737362_x_at) / Fold change /veh IL23R (11737362_x_at) / RFU TMEM51 (11727254_a_at) / Fold change /veh TMEM51 (11727254_a_at) / RFU PIWIL2 (11732686_x_at) / Fold change /veh PIWIL2 (11732686_x_at) / RFU ORM1 (11744905_x_at) / Fold change /veh ORM1 (11744905_x_at) / RFU CCDC152 (11743942_at) / Fold change /veh CCDC152 (11743942_at) / RFU ECM1 (11717891_a_at) / Fold change /veh ECM1 (11717891_a_at) / RFU IL23R (11748794_a_at) / Fold change /veh IL23R (11748794_a_at) / RFU TNFAIP8L3 (11732012_x_at) / Fold change /veh TNFAIP8L3 (11732012_x_at) / RFU MBOAT4 (11741988_at) / Fold change /veh MBOAT4 (11741988_at) / RFU 11764193_at / Fold change /veh 11764193_at / RFU TMEM53 (11763286_at) / Fold change /veh TMEM53 (11763286_at) / RFU MAGEB2 (11727129_at) / Fold change /veh MAGEB2 (11727129_at) / RFU TMEM200A (11744735_a_at) / Fold change /veh TMEM200A (11744735_a_at) / RFU CCDC152 (11751479_a_at) / Fold change /veh CCDC152 (11751479_a_at) / RFU FAM211A (11726209_a_at) / Fold change /veh FAM211A (11726209_a_at) / RFU RGS16 (11746705_a_at) / Fold change /veh RGS16 (11746705_a_at) / RFU VCAN (11755009_s_at) / Fold change /veh VCAN (11755009_s_at) / RFU RHOB (11743442_s_at) / Fold change /veh RHOB (11743442_s_at) / RFU RGS16 (11720943_a_at) / Fold change /veh RGS16 (11720943_a_at) / RFU RGS16 (11720944_at) / Fold change /veh RGS16 (11720944_at) / RFU, VPS4B / Fold change vs veh, VPS4B / RFU, CREB1 / Fold change vs veh, CREB1 / RFU, DNAJC13 / Fold change vs veh, DNAJC13 / RFU, GNAQ / Fold change vs veh, GNAQ / RFU, CDK5R1 / Fold change vs veh, CDK5R1 / RFU, ZRANB3 / Fold change vs veh, ZRANB3 / RFU, CUL4A / Fold change vs veh, CUL4A / RFU, CCNY / Fold change vs veh, CCNY / RFU, UFL1 / Fold change vs veh, UFL1 / RFU, COG3 / Fold change vs veh, COG3 / RFU, DIAPH2 / Fold change vs veh, DIAPH2 / RFU, SKA2 / Fold change vs veh, SKA2 / RFU, AFF3 / Fold change vs veh, AFF3 / RFU, LMF1 / Fold change vs veh, LMF1 / RFU, IPO11 / Fold change vs veh, IPO11 / RFU, DFFB / Fold change vs veh, DFFB / RFU, FOXP1 / Fold change vs veh, FOXP1 / RFU, CARD8 / Fold change vs veh, CARD8 / RFU, STRN3 / Fold change vs veh, STRN3 / RFU, ADK / Fold change vs veh, ADK / RFU, RASSF2 / Fold change vs veh, RASSF2 / RFU, WIPF1 / Fold change vs veh, WIPF1 / RFU, LARP1B / Fold change vs veh, LARP1B / RFU, RASA1 / Fold change vs veh, RASA1 / RFU, RB1 / Fold change vs veh, RB1 / RFU, PPFIA1 / Fold change vs veh, PPFIA1 / RFU, MAT2A / Fold change vs veh, MAT2A / RFU, CCT5 / Fold change vs veh, CCT5 / RFU, WDR92 / Fold change vs veh, WDR92 / RFU, CUX1 / Fold change vs veh, CUX1 / RFU, TTC7A / Fold change vs veh, TTC7A / RFU, TMEM135 / Fold change vs veh, TMEM135 / RFU, DEPTOR / Fold change vs veh, DEPTOR / RFU, CPM / Fold change vs veh, CPM / RFU, DNAJB6 / Fold change vs veh, DNAJB6 / RFU, CACNA2D3 / Fold change vs veh, CACNA2D3 / RFU, DTX4 / Fold change vs veh, DTX4 / RFU, TFCP2 / Fold change vs veh, TFCP2 / RFU, GMCL1 /// GMCL1P1 / Fold change vs veh, GMCL1 /// GMCL1P1 / RFU, AEBP2 / Fold change vs veh, AEBP2 / RFU, SNHG1 /// SNORD22 /// SNORD25 /// SNORD26 /// SNORD27 /// SNORD28 /// SNORD29 /// SNORD31 / Fold change vs veh, SNHG1 /// SNORD22 /// SNORD25 /// SNORD26 /// SNORD27 /// SNORD28 /// SNORD29 /// SNORD31 / Fold change (Aza/veh), C12orf56 (ProbeSet 11735607_a_at) / Fold change (ACY-1035/veh), C12orf56 (ProbeSet 11735607_a_at) / Fold change (Aza/veh), FGFR1OP (ProbeSet 11751329_s_at) / Fold change (ACY-1035/veh), FGFR1OP (ProbeSet 11751329_s_at) / Fold change (Aza/veh), VPS36 (ProbeSet 11739960_a_at) / Fold change (ACY-1035/veh), VPS36 (ProbeSet 11739960_a_at) / RFU SYPL1 (11715823_x_at) / Fold change /veh SYPL1 (11715823_x_at) / RFU IGFBP7 (11715501_s_at) / Fold change /veh IGFBP7 (11715501_s_at) / RFU REEP3 (11722064_at) / Fold change /veh REEP3 (11722064_at) / RFU IGLL1 (11728026_x_at) / Fold change /veh IGLL1 (11728026_x_at): dose or concentration left out as unconfirmed
Settings: ProbeSet 11726661_s_at; LIST B

SMILES: Nc1ccc(-c2cccs2)cc1NC(=O)c1ccc2c(c1)cc(C1CC1)n2CCN1CCOCC1 [ACY-1035]
- RFU, GPN3: 242.51 RFU
